Results as given in PubChem BioAssay (NCI).
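Where inhibition never reached the appropriate level, the endpoint shown equals the highest concentration tested. Otherwise, values were interpolated linearly from a five-concentration, 48-hour dose response in 96-well plates. GI50: concentration for 50% inhibition of growth. The concentration for full growth arrest is given as TGI.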

Assays:
Assay in all cases: inhibition of tumour cell growth, NCI panel, 48 h
NCI-H23 lung = tested on: NCI-H23 lung
NCI-H522 lung = tested on: NCI-H522 lung
NCI/ADR-RES ovarian = tested on: NCI/ADR-RES ovarian
OVCAR-3 ovarian = tested on: OVCAR-3 ovarian
OVCAR-4 ovarian = tested on: OVCAR-4 ovarian
OVCAR-5 ovarian = tested on: OVCAR-5 ovarian
OVCAR-8 ovarian = tested on: OVCAR-8 ovarian
PC-3 prostate = tested on: PC-3 prostate
RPMI-8226 leukemia = tested on: RPMI-8226 leukemia
RXF 393 renal = tested on: RXF 393 renal
SF-295 CNS = tested on: SF-295 CNS
SF-539 CNS = tested on: SF-539 CNS
SK-MEL-2 melanoma = tested on: SK-MEL-2 melanoma
SK-MEL-28 melanoma = tested on: SK-MEL-28 melanoma
SK-MEL-5 melanoma = tested on: SK-MEL-5 melanoma
SK-OV-3 ovarian = tested on: SK-OV-3 ovarian
SN12C renal = tested on: SN12C renal
SNB-75 CNS = tested on: SNB-75 CNS
SR leukemia = tested on: SR leukemia
SW-620 colon = tested on: SW-620 colon
T-47D breast = tested on: T-47D breast
TK-10 renal = tested on: TK-10 renal
U251 CNS = tested on: U251 CNS
UACC-257 melanoma = tested on: UACC-257 melanoma
UACC-62 melanoma = tested on: UACC-62 melanoma
UO-31 renal = tested on: UO-31 renal

For `C=CCC(N[C@@H](CO)c1ccccc1)c1ccccn1` (some centres not stated), the GI50 (NCI-H23 lung) was 60.2 µM, the TGI (NCI-H23 lung) was over 100 µM and the GI50 (NCI-H522 lung) was 25.8 µM. It also gave a TGI (NCI-H522 lung) of over 100 µM, a GI50 (NCI/ADR-RES ovarian) of over 100 µM and a TGI (NCI/ADR-RES ovarian) of over 100 µM. The GI50 (OVCAR-3 ovarian) was over 100 µM, the TGI (OVCAR-3 ovarian) was over 100 µM and the GI50 (OVCAR-4 ovarian) was 25.6 µM. It also gave a TGI (OVCAR-4 ovarian) of over 100 µM, a GI50 (OVCAR-5 ovarian) of over 100 µM and a TGI (OVCAR-5 ovarian) of over 100 µM. For the same compound, the GI50 (OVCAR-8 ovarian) was over 100 µM, the TGI (OVCAR-8 ovarian) was over 100 µM and the GI50 (PC-3 prostate) was over 100 µM. The TGI (PC-3 prostate) was over 100 µM, the GI50 (RPMI-8226 leukemia) was 32.7 µM and the TGI (RPMI-8226 leukemia) was over 100 µM. The GI50 (RXF 393 renal) was over 100 µM, the TGI (RXF 393 renal) was over 100 µM and the GI50 (SF-295 CNS) was over 100 µM. For the same compound, the TGI (SF-295 CNS) was over 100 µM, the GI50 (SF-539 CNS) was over 100 µM and the TGI (SF-539 CNS) was over 100 µM. For the same compound, the GI50 (SK-MEL-2 melanoma) was over 100 µM, the TGI (SK-MEL-2 melanoma) was over 100 µM and the GI50 (SK-MEL-28 melanoma) was over 100 µM. The TGI (SK-MEL-28 melanoma) was over 100 µM, the GI50 (SK-MEL-5 melanoma) was 56.9 µM and the TGI (SK-MEL-5 melanoma) was over 100 µM. The GI50 (SK-OV-3 ovarian) was over 100 µM, the TGI (SK-OV-3 ovarian) was over 100 µM and the GI50 (SN12C renal) was 22.9 µM. The TGI (SN12C renal) was over 100 µM, the GI50 (SNB-75 CNS) was over 100 µM and the TGI (SNB-75 CNS) was over 100 µM. It also gave a GI50 (SR leukemia) of 18.3 µM, a TGI (SR leukemia) of over 100 µM and a GI50 (SW-620 colon) of over 100 µM. It also gave a TGI (SW-620 colon) of over 100 µM, a GI50 (T-47D breast) of over 100 µM and a TGI (T-47D breast) of over 100 µM. The GI50 (TK-10 renal) was over 100 µM, the TGI (TK-10 renal) was over 100 µM and the GI50 (U251 CNS) was over 100 µM. For the same compound, the TGI (U251 CNS) was over 100 µM, the GI50 (UACC-257 melanoma) was 74.8 µM and the TGI (UACC-257 melanoma) was over 100 µM. For the same compound, the GI50 (UACC-62 melanoma) was over 100 µM, the TGI (UACC-62 melanoma) was over 100 µM and the GI50 (UO-31 renal) was 93.4 µM. The TGI (UO-31 renal) was over 100 µM.
